# In ChEMBL document CHEMBL1126659, “5-chloro-3-(phenylsulfonyl)indole-2-carboxamide: a novel, non-nucleoside inhibitor of HIV-1 reverse transcriptase” (J Med Chem, 1993):
# Structures can show the parent of a compound that is named as a salt.
# Test system: MT4
# Assay: Inhibition of cell culture in MT-4 cells
# Type: functional
# Conditions: Homo sapiens, read-out: CIC95
row,Structure (SMILES),IC95 [nM]
1,NC(=O)c1[nH]c2ccc(Cl)cc2c1[S+]([O-])c1ccccc1 (stereo not given),200
2,CNC(=O)c1[nH]c2ccc(Cl)cc2c1Sc1ccccc1,200
3,CN(C)C(=O)c1[nH]c2ccccc2c1Sc1ccccc1,> 3000
4,[O-][S+](Cc1[nH]c2ccccc2c1[S+]([O-])c1ccccc1)c1ccccc1 (stereo not given),> 3000
5,COC(=O)c1[nH]c2ccc(Cl)cc2c1Sc1ccccc1,1500
6,[O-][S+](Cc1[nH]c2ccccc2c1Sc1ccccc1)c1ccccc1 (stereo not given),400
7,[O-][S+](Cc1[nH]c2ccc(Cl)cc2c1Sc1ccccc1)c1ccccc1 (stereo not given),800
8,CNC(=O)c1[nH]c2ccccc2c1Sc1ccccc1,800
9,COC(=O)c1[nH]c2ccccc2c1Sc1ccccc1,> 3000
10,NC(=O)c1[nH]c2ccc(Cl)cc2c1Sc1ccccc1,200
11,CC(C)=CCN1Cc2cc(Cl)cc3[nH]c(=S)n(c23)C[C@@H]1C,400
12,CCNc1cccnc1N1CCN(C(=O)c2cc3cc(OC)ccc3[nH]2)CC1 [ATEVIRDINE MESYLATE],3000
13,CCc1cc(NCc2nc3c(Cl)ccc(Cl)c3o2)c(O)nc1C [L-697661],50
14,NC(=O)c1[nH]c2ccc(Cl)cc2c1S(=O)(=O)c1ccccc1 [L-737126],3
15,Cc1ccnc2c1NC(=O)c1cccnc1N2C1CC1 [NEVIRAPINE],400
